Data: PubChem BioAssay (NCI)
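A five-concentration, 48-hour dose response in 96-well plates underlies each endpoint, interpolated linearly between surrounding concentrations. At the GI50, growth is halved. TGI: concentration producing complete growth inhibition.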

Tests used:
Test in all cases: growth of human tumour cells (NCI), 48 h
MDA-MB-435 = system: MDA-MB-435
786-0 renal = system: 786-0 renal
SK-OV-3 ovarian = system: SK-OV-3 ovarian
OVCAR-8 ovarian = system: OVCAR-8 ovarian
NCI-H226 lung = system: NCI-H226 lung
SW-620 colon = system: SW-620 colon
U251 CNS = system: U251 CNS
OVCAR-3 ovarian = system: OVCAR-3 ovarian
LOX IMVI melanoma = system: LOX IMVI melanoma
PC-3 prostate = system: PC-3 prostate
SF-295 CNS = system: SF-295 CNS
IGROV1 ovarian = system: IGROV1 ovarian
SK-MEL-28 melanoma = system: SK-MEL-28 melanoma
OVCAR-4 ovarian = system: OVCAR-4 ovarian
MCF7 breast = system: MCF7 breast
SR leukemia = system: SR leukemia
COLO 205 colon = system: COLO 205 colon
SNB-19 CNS = system: SNB-19 CNS
HL-60(TB) leukemia = system: HL-60(TB) leukemia
DU-145 prostate = system: DU-145 prostate
MDA-MB-231 breast = system: MDA-MB-231 breast
TK-10 renal = system: TK-10 renal
NCI-H522 lung = system: NCI-H522 lung
RXF 393 renal = system: RXF 393 renal
HOP-62 NSCLC = system: HOP-62 NSCLC
T-47D breast = system: T-47D breast
BT-549 breast = system: BT-549 breast
UO-31 renal = system: UO-31 renal
A549 NSCLC = system: A549 NSCLC
KM12 colon = system: KM12 colon

With NS(=O)(=O)c1ccc(Nc2nc(N/N=C/c3cc(Br)c(O)c(Br)c3)nc(Nc3ccccc3)n2)cc1 the TGI (MDA-MB-435) was 40.6 µM, the GI50 (786-0 renal) was 15.1 µM and the TGI (786-0 renal) was 44.3 µM. It also gave a GI50 (SK-OV-3 ovarian) of 21.3 µM, a TGI (SK-OV-3 ovarian) of 61.9 µM and a GI50 (OVCAR-8 ovarian) of 26.9 µM. The TGI (OVCAR-8 ovarian) was over 100 µM, the GI50 (NCI-H226 lung) was 26.5 µM and the TGI (NCI-H226 lung) was 98.2 µM. The GI50 (SW-620 colon) was 17.2 µM, the TGI (SW-620 colon) was 42.4 µM and the GI50 (U251 CNS) was 20 µM. The TGI (U251 CNS) was 71 µM, the GI50 (OVCAR-3 ovarian) was 21.4 µM and the TGI (OVCAR-3 ovarian) was 63.1 µM. It also gave a GI50 (LOX IMVI melanoma) of 15.8 µM, a TGI (LOX IMVI melanoma) of 30.4 µM and a GI50 (PC-3 prostate) of 19.5 µM. The TGI (PC-3 prostate) was 55.2 µM, the GI50 (SF-295 CNS) was 22.2 µM and the TGI (SF-295 CNS) was 60.2 µM. For the same compound, the GI50 (IGROV1 ovarian) was 18.5 µM, the TGI (IGROV1 ovarian) was 42.2 µM and the GI50 (SK-MEL-28 melanoma) was 18.1 µM. The TGI (SK-MEL-28 melanoma) was 40.6 µM, the GI50 (OVCAR-4 ovarian) was 23.2 µM and the TGI (OVCAR-4 ovarian) was 81.4 µM. It also gave a GI50 (MCF7 breast) of 16.9 µM, a TGI (MCF7 breast) of 45.4 µM and a GI50 (SR leukemia) of 15.9 µM. For the same compound, the TGI (SR leukemia) was over 100 µM, the GI50 (COLO 205 colon) was 16 µM and the TGI (COLO 205 colon) was 29.8 µM. For the same compound, the GI50 (SNB-19 CNS) was 14.2 µM, the TGI (SNB-19 CNS) was 27.7 µM and the GI50 (HL-60(TB) leukemia) was 22 µM. It also gave a TGI (HL-60(TB) leukemia) of 60.9 µM, a GI50 (DU-145 prostate) of 16.1 µM and a TGI (DU-145 prostate) of 30.2 µM. It also gave a GI50 (MDA-MB-231 breast) of 17.2 µM, a TGI (MDA-MB-231 breast) of 47.4 µM and a GI50 (TK-10 renal) of 27.7 µM. It also gave a TGI (TK-10 renal) of 87 µM, a GI50 (NCI-H522 lung) of 16.8 µM and a TGI (NCI-H522 lung) of 42.4 µM. For the same compound, the GI50 (RXF 393 renal) was 14.7 µM, the TGI (RXF 393 renal) was 32.8 µM and the GI50 (HOP-62 NSCLC) was 21.3 µM. The TGI (HOP-62 NSCLC) was 58.9 µM, the GI50 (T-47D breast) was 7.39 µM and the TGI (T-47D breast) was 27.3 µM. The GI50 (BT-549 breast) was 16.8 µM, the TGI (BT-549 breast) was 42.7 µM and the GI50 (UO-31 renal) was 26.7 µM. The TGI (UO-31 renal) was over 100 µM, the GI50 (A549 NSCLC) was 21.8 µM and the TGI (A549 NSCLC) was 67.5 µM. The GI50 (KM12 colon) was 17.5 µM and the TGI (KM12 colon) was 37.1 µM.
